Consider one molecule from publication PMC11768839 (Viruses, 2024).

Assay [1] deals with influenza PR8. The class given is cell-based, Influenza A virus PR8.
Assay [2] has as its system HCoV-229E.

In the case of `O=[N+]([O-])c1ccc(Nc2ccc(Cl)c(C(F)(F)F)c2)c2nonc12` [Compound 5342191, N-[4-chloro-3-(trifluoromethyl)phenyl]-7-nitro-2,1,3-benzoxadiazol-4-amine], in assay [1], the “sensitivity of selected influenza PR8 virus to EC90 dose” value was “remained sensitive”. In addition, in assay [2], the “sensitivity of selected HCoV-229E virus to EC90 dose” value is “remained sensitive”.
